According to US10968225B2, “Compounds and compositions for the treatment of cystic fibrosis” (Fondazione Istituto Italiano Di Tecnologia, priority 2017, dated 2021):

Biological target: T1, mutant CFTR (Homo sapiens, UniProt P13569, DEL508-508)
T1 construct: expressed in transfected cells
Assay: Fluorescence (HS-YFP) assay for CFTR activity, corrector assay
Assay type: cell-based
Settings: CFBE41o- and FRT cells with stable expression of mutant CFTR, read-out: activity (EC50)

T1 sequence (P13569 with tags, fused parts or gaps DEL508-508): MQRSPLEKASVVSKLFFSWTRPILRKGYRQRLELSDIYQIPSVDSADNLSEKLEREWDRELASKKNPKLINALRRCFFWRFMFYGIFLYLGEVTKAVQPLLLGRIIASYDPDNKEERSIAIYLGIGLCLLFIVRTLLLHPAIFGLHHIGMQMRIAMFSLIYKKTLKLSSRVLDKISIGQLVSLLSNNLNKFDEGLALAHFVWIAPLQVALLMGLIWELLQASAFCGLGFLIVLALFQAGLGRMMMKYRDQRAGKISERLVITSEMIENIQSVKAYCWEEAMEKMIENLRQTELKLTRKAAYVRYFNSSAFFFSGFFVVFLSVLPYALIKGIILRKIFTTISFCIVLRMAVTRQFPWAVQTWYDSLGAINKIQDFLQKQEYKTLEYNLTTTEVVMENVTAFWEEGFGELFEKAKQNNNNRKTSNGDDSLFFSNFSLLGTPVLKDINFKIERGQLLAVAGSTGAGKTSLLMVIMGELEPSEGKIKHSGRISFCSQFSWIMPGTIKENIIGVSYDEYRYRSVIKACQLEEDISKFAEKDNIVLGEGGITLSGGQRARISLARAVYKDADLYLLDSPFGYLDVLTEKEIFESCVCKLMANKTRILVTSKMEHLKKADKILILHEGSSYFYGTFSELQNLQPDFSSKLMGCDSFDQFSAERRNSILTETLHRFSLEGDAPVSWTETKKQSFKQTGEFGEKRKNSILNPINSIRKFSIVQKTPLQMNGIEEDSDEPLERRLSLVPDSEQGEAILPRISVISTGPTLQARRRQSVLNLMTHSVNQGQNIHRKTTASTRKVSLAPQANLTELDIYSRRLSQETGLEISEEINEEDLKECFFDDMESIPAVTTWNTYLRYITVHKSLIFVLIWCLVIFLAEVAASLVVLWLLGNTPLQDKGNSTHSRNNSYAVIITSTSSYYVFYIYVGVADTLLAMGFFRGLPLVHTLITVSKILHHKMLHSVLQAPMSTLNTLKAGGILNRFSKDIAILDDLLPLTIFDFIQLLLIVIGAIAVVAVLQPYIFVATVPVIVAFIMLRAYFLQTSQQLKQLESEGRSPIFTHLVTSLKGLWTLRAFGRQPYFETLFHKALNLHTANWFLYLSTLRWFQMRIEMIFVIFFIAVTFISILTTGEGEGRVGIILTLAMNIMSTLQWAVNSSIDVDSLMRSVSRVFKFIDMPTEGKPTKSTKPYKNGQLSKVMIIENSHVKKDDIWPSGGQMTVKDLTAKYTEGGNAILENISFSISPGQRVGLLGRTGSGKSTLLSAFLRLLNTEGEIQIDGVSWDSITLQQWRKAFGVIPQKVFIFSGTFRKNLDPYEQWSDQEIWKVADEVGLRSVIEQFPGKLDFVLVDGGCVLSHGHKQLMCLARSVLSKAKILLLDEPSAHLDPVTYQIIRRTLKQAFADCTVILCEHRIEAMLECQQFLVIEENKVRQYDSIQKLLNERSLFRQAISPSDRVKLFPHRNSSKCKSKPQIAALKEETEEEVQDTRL

**Q.** How did the EC50 turn out when `[2H]C([2H])([2H])N(C(=O)c1cccc(-n2nc(C(F)(F)F)c3c2C(Oc2ccc(C(=O)O)cc2)CCC3)c1)c1ccc2c(c1)OC(F)(F)O2` (stereo not drawn) [Compound 155, 4-[[1-[3-[(2,2-Difluoro-1,3-benzodioxol-5-yl)-(trideuteriomethyl)carbamoyl]phenyl]-3-(trifluoromethyl)-4,5,6,7-tetrahydroindazol-7-yl]oxy]benzoic acid] was run?
**A.** Its EC50 is less than 1 µM.

**Q.** How did the EC50 turn out when `Cc1nc2ccc(N(C)C(=O)c3cccc(-n4nc(C(F)(F)F)c5c4C(Oc4ccc(C(=O)O)cc4)CCC5)c3)cc2o1` (stereo not drawn) [Compound 157, 4-[[1-[3-[Methyl-(2-methyl-1,3-benzoxazol-6-yl)carbamoyl]phenyl]-3-(trifluoromethyl)-4,5,6,7-tetrahydroindazol-7-yl]oxy]benzoic acid] was run?
**A.** Its EC50 is less than 1 µM.

**Q.** Which EC50 does the source give for `Cc1nc2ncc(N(C)C(=O)c3cccc(-n4nc(C(F)(F)F)c5c4C(Oc4ccc(C(=O)O)cc4)CCC5)c3)cc2o1` (stereo not drawn) [Compound 159, 4-[[1-[3-[Methyl-(2-methyloxazolo[4,5-b]pyridin-6-yl)carbamoyl]phenyl]-3-(trifluoromethyl)-4,5,6,7-tetrahydroindazol-7-yl]oxy]benzoic acid] here?
**A.** Its EC50 is 1 to 2 µM.

**Q.** With `COc1cc(OC2CCCc3c(C(F)(F)F)nn(-c4cccc(C(=O)N(C)c5ccc6c(c5)OC(F)(F)O6)c4)c32)ccc1C(=O)O` (stereo not drawn) [Compound 161, 4-[[1-[3-[(2,2-Difluoro-1,3-benzodioxol-5-yl)-methyl-carbamoyl]phenyl]-3-(trifluoromethyl)-4,5,6,7-tetrahydroindazol-7-yl]oxy]-2-methoxy-benzoic acid] as the compound, how does the EC50 read?
**A.** The EC50 was less than 1 µM.

**Q.** With `CN(C(=O)c1cccc(-n2nc(C(F)(F)F)c3c2C(Oc2ccc(C(N)=O)cc2)CCC3)c1)c1ccc2c(c1)OC(F)(F)O2` (stereo not drawn) [Compound 162, 3-[7-(4-Carbamoylphenoxy)-3-(trifluoromethyl)-4,5,6,7-tetrahydroindazol-1-yl]-N-(2,2-difluoro-1,3-benzodioxol-5-yl)-N-methyl-benzamide] as the compound, how does the EC50 read?
**A.** Its EC50 is less than 1 µM.

**Q.** For `CN(C(=O)c1cccc(-n2nc(C(F)(F)F)c3c2C(Oc2ccc(C(=O)O)nc2)CCC3)c1)c1ccc2c(c1)OC(F)(F)O2` (stereo not drawn) [Compound 164, 5-[[1-[3-[(2,2-Difluoro-1,3-benzodioxol-5-yl)-methyl-carbamoyl]phenyl]-3-(trifluoromethyl)-4,5,6,7-tetrahydroindazol-7-yl]oxy]pyridine-2-carboxylic acid], which EC50 is on record?
**A.** Its EC50 is less than 1 µM.

**Q.** For `COc1cncc(N(C)C(=O)c2cccc(-n3nc(C(F)(F)F)c4c3C(Oc3ccc(C(=O)O)cc3)CCC4)c2)c1` (stereo not drawn) [Compound 166, 4-[[1-[3-[(5-Methoxy-3-pyridyl)-methyl-carbamoyl]phenyl]-3-(trifluoromethyl)-4,5,6,7-tetrahydroindazol-7-yl]oxy]benzoic acid], which EC50 is on record?
**A.** Its EC50 is less than 1 µM.

**Q.** Which EC50 does the source give for `COc1ncc(N(C)C(=O)c2cccc(-n3nc(C(F)(F)F)c4c3C(Oc3ccc(C(=O)O)cc3)CCC4)c2)cn1` (stereo not drawn) [Compound 168, 4-[[1-[3-[(2-Methoxypyrimidin-5-yl)-methyl-carbamoyl]phenyl]-3-(trifluoromethyl)-4,5,6,7-tetrahydroindazol-7-yl]oxy]benzoic acid] here?
**A.** Its EC50 is less than 1 µM.

**Q.** With `CN(C(=O)c1cccc(-n2nc(C(F)(F)F)c3c2C(Oc2cccc(C(=O)O)c2)CCC3)c1)c1ccc2c(c1)OC(F)(F)O2` (stereo not drawn) [Compound 170, 3-[[1-[3-[(2,2-Difluoro-1,3-benzodioxol-5-yl)-methyl-carbamoyl]phenyl]-3-(trifluoromethyl)-4,5,6,7-tetrahydroindazol-7-yl]oxy]benzoic acid] as the compound, how does the EC50 read?
**A.** The EC50 was less than 1 µM.

**Q.** How did the EC50 turn out when `Cc1nc2ccc(N(C)C(=O)c3cccc(-n4nc(C(F)(F)F)c5c4C(Oc4ccc(C(=O)O)cc4)CCC5)c3)cn2n1` (stereo not drawn) [Compound 172, 4-[[1-[3-[Methyl-(2-methyl-[1,2,4]triazolo[1,5-a]pyridin-6-yl)carbamoyl]phenyl]-3-(trifluoromethyl)-4,5,6,7-tetrahydroindazol-7-yl]oxy]benzoic acid] was run?
**A.** Its EC50 is less than 1 µM.

**Q.** With `Cc1cc2ncc(N(C)C(=O)c3cccc(-n4nc(C(F)(F)F)c5c4C(Oc4ccc(C(=O)O)cc4)CCC5)c3)cn2n1` (stereo not drawn) [Compound 174, 4-[[1-[3-[Methyl-(2-methylpyrazolo[1,5-a]pyrimidin-6-yl)carbamoyl]phenyl]-3-(trifluoromethyl)-4,5,6,7-tetrahydroindazol-7-yl]oxy]benzoic acid] as the compound, how does the EC50 read?
**A.** The EC50 was less than 1 µM.

**Q.** For `Cc1cc(OC2CCCc3c(C(F)(F)F)nn(-c4cccc(C(=O)N(C)c5ccc6c(c5)OC(F)(F)O6)c4)c32)ccc1C(=O)O` (stereo not drawn) [Compound 176, 4-[[1-[3-[(2,2-Difluoro-1,3-benzodioxol-5-yl)-methyl-carbamoyl]phenyl]-3-(trifluoromethyl)-4,5,6,7-tetrahydroindazol-7-yl]oxy]-2-methyl-benzoic acid], which EC50 is on record?
**A.** The EC50 was less than 1 µM.

**Q.** For `CN(C(=O)c1cccc(-n2nc(C(F)(F)F)c3c2C(Oc2cncc(C(=O)O)c2)CCC3)c1)c1ccc2c(c1)OC(F)(F)O2` (stereo not drawn) [Compound 178, 5-[[1-[3-[(2,2-Difluoro-1,3-benzodioxol-5-yl)-methyl-carbamoyl]phenyl]-3-(trifluoromethyl)-4,5,6,7-tetrahydroindazol-7-yl]oxy]pyridine-3-carboxylic acid], which EC50 is on record?
**A.** The EC50 was less than 1 µM.

**Q.** With `CN(C(=O)c1cccc(-n2nc(C(F)(F)F)c3c2C(Oc2ccc(C(=O)O)cn2)CCC3)c1)c1ccc2c(c1)OC(F)(F)O2` (stereo not drawn) [Compound 180, 6-[[1-[3-[(2,2-Difluoro-1,3-benzodioxol-5-yl)-methyl-carbamoyl]phenyl]-3-(trifluoromethyl)-4,5,6,7-tetrahydroindazol-7-yl]oxy]pyridine-3-carboxylic acid] as the compound, how does the EC50 read?
**A.** Its EC50 is less than 1 µM.

**Q.** How did the EC50 turn out when `CN(C(=O)c1cccc(-n2nc(C(F)(F)F)c3c2C(Oc2cc(C(=O)O)ccn2)CCC3)c1)c1ccc2c(c1)OC(F)(F)O2` (stereo not drawn) [Compound 182, 2-[[1-[3-[(2,2-Difluoro-1,3-benzodioxol-5-yl)-methyl-carbamoyl]phenyl]-3-(trifluoromethyl)-4,5,6,7-tetrahydroindazol-7-yl]oxy]pyridine-4-carboxylic acid] was run?
**A.** Its EC50 is less than 1 µM.

**Q.** How did the EC50 turn out when `CN(C(=O)c1cccc(-n2nc(C(F)(F)F)c3c2C(Oc2ccc(C(=O)O)cc2)COC3)c1)c1ccc2c(c1)OC(F)(F)O2` (stereo not drawn) [Compound 202, 4-[[1-[3-[(2,2-Difluoro-1,3-benzodioxol-5-yl)-methyl-carbamoyl]phenyl]-3-(trifluoromethyl)-6,7-dihydro-4H-pyrano[4,3-c]pyrazol-7-yl]oxy]benzoic acid] was run?
**A.** Its EC50 is less than 1 µM.

**Q.** With `O=C(O)c1ccc(OC2CCCc3c(C(F)(F)F)nn(-c4cccc(C(=O)Nc5ccc6c(c5)OC(F)(F)O6)c4)c32)cc1` (stereo not drawn) [Compound 253, 4-[[1-[3-[(2,2-Difluoro-1,3-benzodioxol-5-yl)carbamoyl]phenyl]-3-(trifluoromethyl)-4,5,6,7-tetrahydroindazol-7-yl]oxy]benzoic acid] as the compound, how does the EC50 read?
**A.** The EC50 was greater than 2 µM.

**Q.** With `CN1Cc2c(C(F)(F)F)nn(-c3cccc(C(=O)N(C)c4ccc5c(c4)OC(F)(F)O5)c3)c2C(Oc2ccc(C(=O)O)cc2)C1` (stereo not drawn) [Compound 274, Ammonium 4-[[1-[3-[(2,2-difluoro-1,3-benzodioxol-5-yl)-methyl-carbamoyl]phenyl]-5-methyl-3-(trifluoromethyl)-6,7-dihydro-4H-pyrazolo[4,3-c]pyridin-7-yl]oxy]benzoate] as the compound, how does the EC50 read?
**A.** Its EC50 is less than 1 µM.
